The source of these data is ChEMBL document CHEMBL2439980, “Discovery of (S,E)-3-(2-fluorophenyl)-N-(1-(3-(pyridin-3-yloxy)phenyl)ethyl)-acrylamide as a potent and efficacious KCNQ2 (Kv7.2) opener for the treatment of neuropathic pain” (Bioorg Med Chem Lett, 2013).

A word on the EC50: it is the midpoint of the concentration-response curve.

SMILES strings stand for the structures. Calls of active or inactive are those of the source.

The target of series [1] is Potassium voltage-gated channel subfamily KQT member 2 (Mus musculus, UniProt Q9Z351). In words: Induction of mouse KCNQ2 expressed in HEK293 cells at -40 mV holding potential by whole-cell patch clamp assay. In kind it is cell-based. For orientation: The patch-clamp technique gives a direct electrical read-out from membranes.
The target of series [2] is Potassium voltage-gated channel subfamily KQT member 2 (Mus musculus) (UniProt Q9Z351). Nature of the series: Induction of mouse KCNQ2 expressed in HEK293 cells at -40 mV holding potential by whole-cell patch clamp assay relative to (+/-)-N-(1-(benzo[d][1,3]dioxol-5-yl)ethyl)-3-(2-chlorophenyl)acrylamide. The class given is cell-based.
Series [3] is described as follows: Drug uptake in Sprague-Dawley rat brain at 1 mg/kg, iv measured after 1 hr. The note with it: read-out: Drug uptake. The arrangement: dose 1 mg/kg, route intravenous. The class given is ADME, organism-based.
In series [4] the target is Potassium voltage-gated channel subfamily KQT member 2 (Mus musculus) (UniProt Q9Z351). In words: Induction of mouse KCNQ2 expressed in HEK293 cells at -40 mV holding potential by whole-cell patch clamp assay relative to retigabine. The class given is cell-based.
Series [5] has as its system Rattus norvegicus. Nature of the series: Analgesic activity in rat assessed reduction formalin-induced initial pain response at 10 mg/kg, iv administered 2 mins before formalin challenge. The arrangement: dose 10 mg/kg. The class given is functional, organism-based.
The nature of series [6]: Drug uptake in Sprague-Dawley rat brain at 1 mg/kg, iv measured after 15 mins. Conditions: read-out: Drug uptake. In kind it is ADME, organism-based. The arrangement: dose 1 mg/kg, route intravenous.
Series [7] deals with Rattus norvegicus. Nature of the series: Analgesic activity in rat assessed reduction formalin-induced second phase pain response at 10 mg/kg, iv administered 8 mins post formalin challenge. In kind it is functional, organism-based. The arrangement: dose 10 mg/kg.
For series [8], the system named is Rattus norvegicus. In words: Analgesic activity in Sprague-Dawley rat L5/L6 spinal nerve injury Chung model of neuropathic pain assessed as […] hair-induced paw withdrawal threshold at 3 mg/kg, iv measured after 15 to 90 mins relative to vehicle-treated control. In kind it is functional, organism-based. The arrangement: dose 3 mg/kg.
For series [9], the system named is Rattus norvegicus. Nature of the series: Analgesic activity in Sprague-Dawley rat L5/L6 spinal nerve injury Chung model of neuropathic pain assessed as […] hair-induced paw withdrawal threshold at 10 mg/kg, iv measured after 15 mins relative to vehicle-treated control. The arrangement: dose 10 mg/kg. The class given is functional, organism-based.

For series [10], the system named is Rattus norvegicus. In words: Analgesic activity in STZ-induced diabetic neuropathy rat model assessed as prolongation of reversal of hypersensitivity time at 3 mg/kg, iv measured after 15 to 90 mins relative to vehicle-treated control. The class given is functional.
Series [11] concerns Rattus norvegicus. In words: Toxicity in Sprague-Dawley rat assessed as […] at 10 mg/kg, iv after 10 mins by rotorod test. The note with it: in vivo. The arrangement: dose 10 mg/kg, route intravenous. The class given is organism-based. Background: Falling from the rotarod earlier than controls is read as motor impairment.
The subject of series [12] is Rattus norvegicus. Nature of the series: Analgesic activity in rat assessed reduction formalin-induced second phase pain response at 100 mg/kg, iv administered 8 mins post formalin challenge. The class given is functional, organism-based. The arrangement: dose 100 mg/kg.
The test system of series [13] is Rattus norvegicus. In words: Analgesic activity in rat assessed reduction formalin-induced initial pain response at 100 mg/kg, iv administered 2 mins before formalin challenge. The class given is functional, organism-based. The arrangement: dose 100 mg/kg.
In series [14] the test system is Rattus norvegicus. In words: Analgesic activity in Sprague-Dawley rat L5/L6 spinal nerve injury Chung model of neuropathic pain assessed as […] hair-induced paw withdrawal threshold at 100 mg/kg, iv measured after 15 to 90 mins relative to vehicle-treated control. The class given is functional, organism-based. The arrangement: dose 100 mg/kg.

Sequence of Potassium voltage-gated channel subfamily KQT member 2 (Q9Z351 whole entry): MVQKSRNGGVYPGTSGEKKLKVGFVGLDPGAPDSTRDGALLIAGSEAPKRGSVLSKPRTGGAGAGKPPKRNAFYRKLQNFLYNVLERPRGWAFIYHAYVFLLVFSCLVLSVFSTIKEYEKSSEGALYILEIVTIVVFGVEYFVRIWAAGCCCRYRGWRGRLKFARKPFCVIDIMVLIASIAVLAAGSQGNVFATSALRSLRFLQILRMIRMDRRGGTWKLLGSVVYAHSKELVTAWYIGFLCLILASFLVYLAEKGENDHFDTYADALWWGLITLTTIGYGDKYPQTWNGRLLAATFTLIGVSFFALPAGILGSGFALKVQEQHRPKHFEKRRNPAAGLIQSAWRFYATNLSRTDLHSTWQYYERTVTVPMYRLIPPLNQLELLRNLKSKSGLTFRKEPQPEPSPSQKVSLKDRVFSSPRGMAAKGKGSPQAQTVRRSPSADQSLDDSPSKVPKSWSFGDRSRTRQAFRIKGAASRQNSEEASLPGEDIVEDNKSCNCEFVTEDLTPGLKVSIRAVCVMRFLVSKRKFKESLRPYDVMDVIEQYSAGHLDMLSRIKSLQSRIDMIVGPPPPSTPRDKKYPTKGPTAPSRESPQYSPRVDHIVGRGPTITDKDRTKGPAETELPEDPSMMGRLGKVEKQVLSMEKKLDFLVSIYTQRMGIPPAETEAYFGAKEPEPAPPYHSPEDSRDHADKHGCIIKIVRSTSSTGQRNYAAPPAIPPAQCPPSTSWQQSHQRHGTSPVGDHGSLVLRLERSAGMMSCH
Sequence of Potassium voltage-gated channel subfamily KQT member 2 (Mus musculus) (Q9Z351 whole entry): as above

In turn, `C[C@@H](NC(=O)/C=C/c1cc(F)ccc1F)c1cccc(Oc2ccncc2)c1` gave an EC50 in [1] of over 10000 nM.

Regarding `C[C@H](NC(=O)/C=C/c1ccccc1)c1cccc(N2CCOCC2)c1`, the Ratio in [2] worked out at 1.4.

As to `CCOC(=O)Nc1ccc(NCc2ccc(F)cc2)cc1N`, in series [2], the Ratio came out at 1.6.

As for `C[C@H](NC(=O)/C=C/c1ccccc1F)c1cccc(-c2ccc(F)nc2)c1`, the Ratio in series [2] worked out at 0.85.

With `C[C@H](NC(=O)/C=C/c1ccccc1F)c1cccc(Oc2cccnc2)c1`, in [3], the concentration at 1 h is 560 nM. The Ratio in series [2] worked out at 2.2. The compound also had an Efficacy in [4] of 38%. For the same compound, the outcome in series [5], in series [7] and in series [9] was Active. The compound also came in with an EC50 in series [1] of 2.4 nM. For the same compound, in series [6], the concentration at 0.25 h was found to be 2000 nM. Further, the outcome in series [8] was inactive. Besides, in [10], the Time came to 15 min. For the same compound, the Activity entry in series [11] was “Non-toxic”.

As to `NCC1(CC(=O)O)CCCCC1`, the result in series [12] and in [14] was Active. The outcome in [13] was inactive.

On to `C[C@H](NC(=O)/C=C/c1ccccc1Cl)c1ccc2c(c1)OCO2`, for which, in series [2], the Ratio worked out at 1.1.

For the compound `C[C@H](NC(=O)/C=C/c1cc(F)ccc1F)c1cccc(Oc2ccncc2)c1`, in series [3], the concentration at 1 h was determined as 42 nM. The Ratio in series [2] amounted to 2.9. The compound further had an EC50 in series [1] of 0.9 nM. Besides, the concentration at 0.25 h in series [6] is 160 nM. Besides, in series [9], the result was Active.

As to `C[C@H](NC(=O)/C=C/c1ccccc1F)c1ccc2c(c1)N(CC1CC1)CCO2`, in series [2], the Ratio is 1.8.

Take `C[C@@H](NC(=O)/C=C/c1ccccc1F)c1cccc(Oc2cccnc2)c1`: in [1], the EC50 was over 10000 nM.
